From US20180228801A1, “Method for Enhancing Learning Ability and Memory of Patients with Alzheimer's Disease using Mocetinostat” (National Taiwan Normal University, priority 2017, published 2018)

How the values were obtained:
Type in all cases: in vivo, mice (C57BL/6J)
[1] = system: mice with oligomeric Aβ25-35 injected into bilateral hippocampal CA1; assay: Open Field Test; conditions: for time spent at the central area (anxiety): Aβ25-35 mice, vs Aβ25-35 alone
Protocol: (§1) Further, in some embodiments of the present invention, C57BL/6J strain male mice (12 week old) are used as a subject in need. After mice are allowed to adapt to the environment for 6 days, mice are anesthetized with Avertin (0.4 g/kg; purchased from Sigma). The mice are fixed on a stereotactic apparatus for operation, followed by injecting oligomeric Aβ25-35 (10 nM, 3 μL) into bilateral hippocampal CA1 (AP: […] relative to the bregma; ML: ±[…] relative to the midline; DV: […] relative to the skull) on day 7. MGCD0103 and equal volume of vehicle (saline) are intraperitoneal (i.p.) injected once a day from day 8, the day after said operation, for 29 days. On day 24, the Open Field Test is performed; on day 26, the EPM is performed; on day 28, the Y-maze is performed; on days 30 to 36, MWM is performed; and on day 37, mice are euthanized for pathological analysis.
In an embodiment, OFT is performed to said mice. The mice are placed in a central area of a white box (30 cm×30 cm×30 cm). Then, mice are allowed spontaneously walk for 10 minutes, and the time that mice spend at the central area (15 cm×15 cm×15 cm) in the first 5 minutes is recorded. Since mice tend to spend time at a peripheral area of an open field when anxious, observing the time spent in the central zone there by the mice will give an indication of the level of anxiety of the mice. In addition, counting the total distance that the mice have moved in the last 5 minutes may determine an index of spontaneous exercise ability of the mice. After finishing the test for each mouse, the box was wiped with 70% and 30% (v/v) of ethanol solution to remove remaining odor in order to avoid affecting other test results.

[2] = system: mice with oligomeric Aβ25-35 or saline injected into hippocampal CA1; assay: Morris Water Maze memory test
Protocol: as §1
MWM is a test for observing spatial learning and memory of mice by placing a platform in a wide pool. […] The behavior of finding the platform relates to a complex memory process within the brain, including 1) collecting the visual information (such as shape information of rectangles, circles and triangles) with respect to spatial positioning, and 2) processing, sorting, memorizing, fixing and recalling said information. In particular, the mice are placed in a pool filled with milky white non-toxic advertising pigment (used to make the water become opaque to hide the platform so that the mice may not know the position of the platform at the beginning), and are allowed to explore in search of the platform (which is fixed in a predetermined quadrant) underwater. The test is split into several phases as follows: 1) exploration phase: Place the mouse in the water and leave it there for 1 minute. If the mouse cannot find the platform in time, then move the mouse to the platform and leave there for 20 seconds. Then, place the mouse at a dry location and allow to rest until the next experiment; 2) acceptance phase: place the mouse into the water maze at four specific positions in turn in order to test whether the mouse can find the platform or not. Such training is repeated four times a day and continued for 4 days (each mouse is trained a total of 16 times). After 4 days of training, the learning ability of the mouse is measured in testing. After 24 hours of last testing trial, platform was removed and the mouse to freely swim in the pool and observe whether the mouse remembers the position of the platform or not (long-term spatial memory test). The swimming path is recorded by a CCD camera and analyzed with an image tracking system (EthoVision-XT).

PSD95 = assay: Western blot, PSD95; conditions: hippocampus
Protocol: as §1

pCDK = assay: Western blot, pCDK; conditions: hippocampus
Protocol: as §1

[3] = system: Tau protein at the Ser-202 site; assay: Immunohistochemical staining, pS202Tau; conditions: Aβ25-35 mice
Protocol: as §1
The inventor collects the brain tissue by perfusion followed by fixing and dehydrating, then, 30 μm frozen sections are obtained by a freezing microtome (CMS3050S, Leica). […] After that, avidin-biotin complex (ABC) is detected 1 hour after staining. […] After all sections have been stained, they are then fixed on a slide, dried, dehydrated, mounted, and photographed for quantity (performed by Image Pro Plus, Meida Cyberetics, USA).

[4] = system: IDE (Aβ degrading enzyme); assay: Western blot, IDE; conditions: Aβ25-35 mice, hippocampus
Protocol: as §1

[5] = system: NEP (Aβ degrading enzyme); assay: Western blot, NEP; conditions: hippocampus
Protocol: as §1

[6] = high dose 0.5 mg/kg i.p. once a day
[7] = saline-injected (normal) mice, high dose 0.5 mg/kg i.p.
[8] = saline-injected (normal) mice, low dose 0.01 mg/kg i.p.

Question: What does the source list for `Nc1ccccc1NC(=O)c1ccc(CNc2nccc(-c3cccnc3)n2)cc1` [MGCD0103, N-(2-Aminophenyl)-4-[[(4-pyridin-3-ylpyrimidin-2-yl)amino]methyl] benzamide]?
Answer: time spent at the central area (anxiety) [1, 6]: significantly increase; time spent at the central area (anxiety) ([1]; low dose 0.01 mg/kg i.p. once a day): significantly increase; total moving distance (spontaneous exercise ability) [1, 6]: does not influence; total moving distance (spontaneous exercise ability) ([1]; low dose 0.01 mg/kg i.p. once a day, vs group treated with saline): reduced; learning curve, time required to reach the platform over 4 training days ([2]; Aβ25-35 mice, high dose 0.5 mg/kg i.p.): reduced time required to reach the platform; time required to reach the platform, testing on day 5 ([2]; Aβ25-35 mice, high dose 0.5 mg/kg i.p., vs Aβ25-35 alone): significantly less; time spent at the target quadrant after removing the platform (long-term memory) ([2]; Aβ25-35 mice, high dose 0.5 mg/kg i.p., vs Aβ25-35 group without treatment): significantly increased; learning curve, time required to reach the platform over 4 training days ([2]; Aβ25-35 mice, low dose 0.01 mg/kg i.p.): reduced time required to reach the platform; time required to reach the platform, testing on day 5 ([2]; Aβ25-35 mice, low dose 0.01 mg/kg i.p., vs Aβ25-35 alone): significantly less; time spent at the target quadrant after removing the platform (long-term memory) ([2]; Aβ25-35 mice, low dose 0.01 mg/kg i.p., vs Aβ25-35 group without treatment): significantly increased; swimming velocity ([2]; all groups, low and high dose, saline or Aβ25-35 mice): same velocity; time required to reach the platform, testing on day 5 ([2]; saline-injected (normal) mice treated with MGCD0103, dose not stated): significantly increased; learning curve, time required to reach the platform over 4 training days [2, 7]: does not significantly decrease; time spent at the target quadrant after removing the platform (long-term memory) [2, 7]: significantly decreased; learning curve, time required to reach the platform over 4 training days [2, 8]: does not significantly decrease; time spent at the target quadrant after removing the platform (long-term memory) [2, 8]: significantly decreased; expression of PSD95 (PSD95): no significant difference; expression of pCDK (pCDK): do not show difference; pS202Tau ([3]; BLA region): significantly decreased; pS202Tau ([3]; hippocampal CA1): significantly decreased; expression of IDE protein [4]: significantly increased; expression of NEP [5]: do not have significant difference
